Reference: ChEMBL document CHEMBL1201862, “PubChem BioAssay data set” (2004)
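Growth conditions: 96-well plates. Treatment: test compound, 48 hours, 5 concentrations. Analysis: linear interpolation between bracketing concentrations; unreached endpoints set to highest concentration. Abbreviation: GI50, concentration required for 50% inhibition of growth.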 The source made the active and inactive calls. Rule as the data show it: active = GI50 up to about 1.1 µM and inactive = higher.

Columns and labels:
Assay in all cases: NCI-60 cell line screen, 48 h
SK-MEL-2 = test system: SK-MEL-2
ACHN = test system: ACHN
SW-620 = test system: SW-620
K562 = test system: K562
NCI-H226 = test system: NCI-H226
SK-MEL-28 = test system: SK-MEL-28
COLO 205 = test system: COLO 205
Malme-3M = test system: Malme-3M
PC-3 = test system: PC-3
HT-29 = test system: HT-29
NCI-H23 = test system: NCI-H23
HCC 2998 = test system: HCC 2998
OVCAR-3 = test system: OVCAR-3
SF-295 = test system: SF-295
UO-31 = test system: UO-31
MOLT-4 = test system: MOLT-4
BT-549 = test system: BT-549
SNB-19 = test system: SNB-19
MDA-MB-435 = test system: MDA-MB-435

Structure (SMILES) | GI50 (SK-MEL-2) | GI50 (ACHN) | GI50 (SW-620) | GI50 (K562) | GI50 (NCI-H226) | GI50 (SK-MEL-28) | GI50 (COLO 205) | GI50 (Malme-3M) | GI50 (PC-3) | GI50 (HT-29) | GI50 (NCI-H23) | GI50 (HCC 2998) | GI50 (OVCAR-3) | GI50 (SF-295) | GI50 (UO-31) | GI50 (MOLT-4) | GI50 (BT-549) | GI50 (SNB-19) | GI50 (MDA-MB-435)
O=[N+]([O-])c1cccc2nc3ccccc3c(NCCCCCNc3c4ccccc4nc4cccc([N+](=O)[O-])c34)c12 | 0.159 µM (active) | 0.0162 µM (active) | 0.0158 µM (active) | 0.00466 µM (active) | 0.245 µM (active) | 0.171 µM (active) | 0.0246 µM (active) | 0.129 µM (active) | 0.102 µM (active) | 0.0195 µM (active) | 0.0412 µM (active) | 0.0243 µM (active) | 0.075 µM (active) | 0.137 µM (active) | 0.134 µM (active) | 0.0203 µM (active) | 0.159 µM (active) | 0.116 µM (active) | –
NC(Cc1cc(Br)c(O)c(Br)c1)C(=O)O (configuration not stated) | > 100 µM (inactive) | > 100 µM (inactive) | > 100 µM (inactive) | > 100 µM (inactive) | > 100 µM (inactive) | > 100 µM (inactive) | > 100 µM (inactive) | > 100 µM (inactive) | > 100 µM (inactive) | > 100 µM (inactive) | > 100 µM (inactive) | – | > 100 µM (inactive) | > 100 µM (inactive) | – | > 100 µM (inactive) | > 100 µM (inactive) | > 100 µM (inactive) | > 100 µM (inactive)
COc1cc2c(cc1O)-c1c(OC)c(O)cc3c1C(C2)N(C)CC3 (configuration not stated) | > 100 µM (inactive) | > 100 µM (inactive) | > 100 µM (inactive) | – | > 100 µM (inactive) | – | > 100 µM (inactive) | – | > 100 µM (inactive) | > 100 µM (inactive) | > 100 µM (inactive) | – | > 100 µM (inactive) | > 100 µM (inactive) | > 100 µM (inactive) | > 100 µM (inactive) | > 100 µM (inactive) | > 100 µM (inactive) | > 100 µM (inactive)
CCOC(=O)/C=C/CC(C)(C)CCOC(C)=O | > 10 µM (inactive) | > 10 µM (inactive) | > 10 µM (inactive) | > 10 µM (inactive) | > 10 µM (inactive) | > 10 µM (inactive) | > 10 µM (inactive) | – | > 10 µM (inactive) | > 10 µM (inactive) | > 10 µM (inactive) | > 10 µM (inactive) | > 10 µM (inactive) | > 10 µM (inactive) | > 10 µM (inactive) | > 10 µM (inactive) | – | > 10 µM (inactive) | > 10 µM (inactive)
CC1N(O)C(c2ccccc2)C(c2ccccc2)=[N+]1[O-] (configuration not stated) | > 100 µM (inactive) | > 100 µM (inactive) | > 100 µM (inactive) | > 100 µM (inactive) | > 100 µM (inactive) | > 100 µM (inactive) | > 100 µM (inactive) | > 100 µM (inactive) | > 100 µM (inactive) | > 100 µM (inactive) | > 100 µM (inactive) | > 100 µM (inactive) | > 100 µM (inactive) | > 100 µM (inactive) | > 100 µM (inactive) | > 100 µM (inactive) | > 100 µM (inactive) | > 100 µM (inactive) | –
CC[N+](C)(CC)CCN1C(=O)c2ccccc2S1(=O)=O | > 100 µM (inactive) | > 100 µM (inactive) | > 100 µM (inactive) | – | > 100 µM (inactive) | > 100 µM (inactive) | > 100 µM (inactive) | > 100 µM (inactive) | > 100 µM (inactive) | > 100 µM (inactive) | > 100 µM (inactive) | – | > 100 µM (inactive) | > 100 µM (inactive) | > 100 µM (inactive) | 39.8 µM (inactive) | > 100 µM (inactive) | > 100 µM (inactive) | > 100 µM (inactive)
FC(F)(F)c1ccc2nc(Sc3ccccn3)cnc2c1 | 15.9 µM (inactive) | 16.7 µM (inactive) | 34.4 µM (inactive) | 51.4 µM (inactive) | 26.2 µM (inactive) | > 100 µM (inactive) | 53.2 µM (inactive) | > 100 µM (inactive) | – | 51.8 µM (inactive) | 28.4 µM (inactive) | 17.1 µM (inactive) | – | 60.1 µM (inactive) | 22.7 µM (inactive) | 36.8 µM (inactive) | 29.6 µM (inactive) | 24.2 µM (inactive) | 58.1 µM (inactive)
CC1=C2CN(C(=O)OCC(C)C)CCC2C2=C(C(=O)c3ccccc3C2=O)C1C (configuration not stated) | – | – | > 10 µM (inactive) | > 10 µM (inactive) | – | > 10 µM (inactive) | > 10 µM (inactive) | > 10 µM (inactive) | > 10 µM (inactive) | > 10 µM (inactive) | 6.53 µM (inactive) | > 10 µM (inactive) | – | > 10 µM (inactive) | – | > 10 µM (inactive) | – | – | > 10 µM (inactive)
N#CC(C/C=C/c1ccccc1)NNC(=O)c1c(Cl)c(Cl)c(Cl)c(Cl)c1-c1nc2cc(C(=O)c3ccccc3)ccc2[nH]1 (configuration not stated) | 17.5 µM (inactive) | 25.9 µM (inactive) | 22.8 µM (inactive) | 6.34 µM (inactive) | 17.7 µM (inactive) | 16.3 µM (inactive) | 15 µM (inactive) | – | 10.9 µM (inactive) | 16.1 µM (inactive) | 17.9 µM (inactive) | – | 7.53 µM (inactive) | 3.92 µM (inactive) | 21.5 µM (inactive) | 13.4 µM (inactive) | 20.7 µM (inactive) | 14.8 µM (inactive) | 4.11 µM (inactive)
O=C(Nc1ccc(Cl)cc1)c1cc2c(cc1Cl)Sc1nccn1S2(=O)=O | > 100 µM (inactive) | 75.5 µM (inactive) | 27.5 µM (inactive) | 14.1 µM (inactive) | 51.3 µM (inactive) | 40.5 µM (inactive) | > 100 µM (inactive) | 77.8 µM (inactive) | 85.3 µM (inactive) | > 100 µM (inactive) | – | 76.7 µM (inactive) | 46.5 µM (inactive) | 29.2 µM (inactive) | – | 27.9 µM (inactive) | – | 44.4 µM (inactive) | 4.42 µM (inactive)
COc1cc(C2C(Cl)C(=O)N2c2ccc(Br)cc2)cc(I)c1O (configuration not stated) | 65.8 µM (inactive) | 33.5 µM (inactive) | > 100 µM (inactive) | 7.21 µM (inactive) | – | – | > 100 µM (inactive) | – | > 100 µM (inactive) | 87.1 µM (inactive) | 52.8 µM (inactive) | – | 45.3 µM (inactive) | 35.4 µM (inactive) | 31.1 µM (inactive) | 27.5 µM (inactive) | 45.1 µM (inactive) | 73.5 µM (inactive) | 47.5 µM (inactive)
N#C/C(C(=S)Nc1ccccc1)=C(/N)N1CCCC1 | > 100 µM (inactive) | > 100 µM (inactive) | > 100 µM (inactive) | > 100 µM (inactive) | > 100 µM (inactive) | > 100 µM (inactive) | > 100 µM (inactive) | > 100 µM (inactive) | > 100 µM (inactive) | > 100 µM (inactive) | > 100 µM (inactive) | > 100 µM (inactive) | > 100 µM (inactive) | > 100 µM (inactive) | 46.7 µM (inactive) | > 100 µM (inactive) | – | > 100 µM (inactive) | > 100 µM (inactive)
